In patent publication US8546529B2, “Injectable bone regeneration gel containing bone formation enhancing peptide” (Nano Intelligent Biomedical Engineering Corporation Co., …, priority 2007, dated 2013):

Tested on: Mesodermal stem cells C2C12
Test: Calcification of cells by bone regeneration materials (calcein fluorescence)
Assay type: cell-based
Details: C2C12 cultured for 14 days in medium for hard tissue formation containing calcein; compared with material containing no peptide
Procedure: Mesodermal stem cells C2C12 (America Type Culture Collection, CRL-1772) were cultured for 14 days, while adding the injectable bone regeneration materials prepared in Example 1 to a medium for hard tissue formation, containing calcein (fluorescent substance for calcium). The cultured osteoblasts were fixed with 2% glutaraldehyde solution. The fixed cells were treated with 1% triton X-100, and then nuclei were strained with DAPI (blue) and actins were stained with Rhodamine phalloidin (Molecular Probe, red), thus staning the cultured cells.

“YGLRSKSKKFRRPDIQYPDAT (listed as Homo sapiens) [SEQ ID NO: 6]” was tested, and the “calcification (calcium fluorescence deposited on extracellular matrixes)” value was “promotes calcification of cells”.
